# Results: paper doi:10.1101/2023.05.15.540887, “Comparative analysis of drug-like EP300/CREBBP acetyltransferase inhibitors” (bioRxiv, 2023)
# Experiments:
# [1] = test system: SW-620; test: NCI-60 growth inhibition (sulforhodamine B); format: cell-based, human; conditions: SW-620 (Colon Cancer), negative log of Molar conc., LCONC -8
# [2] = test system: NCI-H23; test: NCI-60 growth inhibition (sulforhodamine B); format: cell-based, human; conditions: NCI-H23 (Non-Small Cell Lung Cancer), negative log of Molar conc., LCONC -8
# [3] = test system: M14; conditions: M14 (Melanoma); negative log of Molar conc.; LCONC -8
# [4] = test system: HOP-92; test: NCI-60 growth inhibition (sulforhodamine B); format: cell-based, human; conditions: HOP-92 (Non-Small Cell Lung Cancer), negative log of Molar conc., LCONC -8
# [5] = test system: OVCAR-3; test: NCI-60 growth inhibition (sulforhodamine B)
# [6] = test system: DU-145; test: NCI-60 growth inhibition (sulforhodamine B); format: cell-based; conditions: Homo sapiens, DU-145, Prostate Cancer, negative log of Molar value, LCONC -8, EXPID 2301NS84
# [7] = test system: histone H3 acetylation in MCF-7 cells; test: Western blot analysis of histone acetylation (H3K18Ac, H3K27Ac, H3K23Ac) in MCF-7 cells; format: cell-based, human; conditions: 3 h, 8 nM – 5 μM, compared among 1-3
# Description: Next, we sought to quantitatively benchmark the properties of 1-3 in living cells. EP300 and CREBBP modify a wide variety of substrates in biochemical experiments and upon ectopic overexpression.[2] However, two well-characterized cellular histone lysine substrates of these enzymes are H3K18 and H3K27.[26] Even though H3K18Ac is the more abundant of the two markers, H3K27Ac is also of great interest due to its association with active enhancer regions. […] Cells were treated with escalating doses of 1-3 and harvested at 3 h to avoid overt cytotoxicity and allow the direct effects on acetylation to be observed (Fig. 3a). […] Control experiments indicated levels of H3K23Ac, which is not regulated by EP300/CREBBP, were not affected.
# MCF-7 cells were plated in 1700 µL culture medium at 1 x 10^6 cells per well in 6-well dishes. After 16-24 h cells were treated with 300 µL of 1-3-containing media to yield a final concentration of 8 nM, 40 nM, 200 nM, 1 µM, or 5 µM EP300/CREBBP inhibitor (0.1% final concentrations of DMSO). Controls were treated with vehicle DMSO (0.1%). […]
# Histone samples were quantified using the Precision Red Protein Assay (Cytoskeleton #ADV02). […]
# [8] = test system: UACC-62; test: NCI-60 growth inhibition (sulforhodamine B); format: cell-based, human; conditions: UACC-62 (Melanoma), negative log of Molar conc., LCONC -8
# [9] = test system: HCC-2998; test: NCI-60 growth inhibition (sulforhodamine B); format: cell-based, human; conditions: HCC-2998 (Colon Cancer), negative log of Molar conc., LCONC -8
# [10] = test system: MDA-MB-468; test: NCI-60 growth inhibition (sulforhodamine B); conditions: Homo sapiens
# [11] = Homo sapiens, read-out: GI50 NLOGVALUE (converted)
# [12] = Homo sapiens, read-out: IC50 NLOGVALUE (converted)
# [13] = Homo sapiens, read-out: LC50 NLOGVALUE
# [14] = Homo sapiens, read-out: IC50 NLOGVALUE
structure (smiles),measurement,setting,value
C[C@H](CN[C@@H](C(=O)Nc1ccc(-c2cnn(C)c2)cn1)c1ccccc1)c1ccc(C#N)cc1 [CPI-1612],GI50,[1]; [11],0.417 µM
same,IC50,[1]; [12],6.76 µM
same,CC50,[1]; [13],> 100 µM
same,TGI NLOGVALUE,[1],4
same,GI50,[2]; [11],0.0331 µM
same,IC50,[2]; [12],0.851 µM
same,CC50,[2]; [13],> 100 µM
same,TGI NLOGVALUE,[2],4
same,TGI NLOGVALUE,[3],4
same,TGI NLOGVALUE,[4],4
same,GI50,[4]; [11],1.62 µM
same,IC50,[4]; [14],> 100 µM
same,CC50,[4]; [13],> 100 µM
same,GI50,"[5]; Homo sapiens, OVCAR-3, read-out: GI50 NLOGVALUE",0.186 µM
same,IC50,"[5]; Homo sapiens, OVCAR-3, read-out: IC50 NLOGVALUE",24 µM
same,CC50,"[5]; Homo sapiens, OVCAR-3, read-out: LC50 NLOGVALUE",> 100 µM
same,TGI NLOGVALUE,"[5]; OVCAR-3 (Ovarian Cancer), negative log of Molar conc., LCONC -8",4
same,GI50,[6]; read-out: GI50 NLOGVALUE (converted),21.4 µM
same,IC50,[6]; read-out: IC50 NLOGVALUE,> 100 µM
same,CC50,[6]; read-out: LC50 NLOGVALUE,> 100 µM
same,"inhibition of histone acetylation (H3K18Ac, H3K27Ac), Western blot",[7],most potent activity
same,GI50,"[8]; Homo sapiens, read-out: GI50 NLOGVALUE",> 100 µM
same,IC50,[8]; [14],> 100 µM
same,CC50,[8]; [13],> 100 µM
same,TGI NLOGVALUE,[8],4
same,TGI NLOGVALUE,[9],4
same,GI50,[9]; [11],0.11 µM
same,IC50,[9]; [12],33.9 µM
same,CC50,[9]; [13],> 100 µM
same,GI50,"[10]; MDA-MB-468, read-out: GI50 NLOGVALUE",< 0.01 µM
same,IC50,"[10]; MDA-MB-468, read-out: IC50 NLOGVALUE",> 100 µM
